Measured values from patent US20090054523A1, “Use of a Fatty Acid Composition Containing DHA for the Production of a Medical Product or a Food Stuff for the Treatment of Amyloidos-Related Diseases” (priority 2005, published 2009).

Test system: secondary amyloidosis (spleen amyloid)
Assay: Secondary amyloidosis induced by silver nitrate injections, spleen amyloid by Congo red
Type: in vivo, Female NMRI mice
Protocol: Female NMRI mice were injected once a week subcutaneously with 0.3 ml of a 1% silver nitrate solution for 25 weeks. The animals were fed high fat diet containing mainly sunflower oil with a fat content of 55% of total daily calories. Three groups each consisting of 6 animals were given different omega-3 fatty acid concentrates (intervention group) or standard olive oil containing about 78% oleic acid (oleic acid group). In the intervention groups 15% of the fat content was exchanged with either 97% docosahexaenoic acid (DHA group) or EPAX1050TG containing 10% of EPA and 50% of DHA (EPAX group).
After study completion the mice were sacrificed and spleens were collected.
The air-dried smear material and 10-μm-thick sections from the formalin fixed material were stained for amyloid with specific dye alkaline Congo red. The slides were examined in cross-polarized light for bright green birefringence, specific for amyloid. Evaluation of the material was performed on coded slides.

CC/C=C\C/C=C\C/C=C\C/C=C\C/C=C\C/C=C\CCC(=O)O [DHA, (all-Z omega-3)-4,7,10,13,16,19-docosahexaenoic acid]
amyloid appeared in the spleen (25 weeks of weekly s.c. silver nitrate, 15% of fat content exchanged): one out of six | animals that developed amyloid after silver nitrate injections (after 25 weeks of treatment): one | animals with amyloid (spleen, 25 weeks of weekly s.c. silver nitrate, 15% of tot. fat of high fat diet exchanged): 1/6 animals
